Measured values from patent US20110081362A1, “TREATMENT OF CANCER” (THE BRIGHAM AND WOMEN'S HOSPITAL, INC., priority 2008, published 2011).
Where a SMILES comes first, the peptide text is derived from it. The star is where a group is joined. Cbz = O=C(OCc1ccccc1)*

Key:
Format in all cases: cell-based, human
[1] = system: HCT116 Ras Mut cells vs HCT116 Ras WT cells; assay: Competition assay, GFP-labeled Ras Mut vs Ras WT cells, FACS; conditions: HCT116 isogenic pair; drug present for 4-5 days
Experimental: Next, a competition assay was devised to test the reproducibility of candidate RSL shRNAs from the primary screen (Torrance et al., 2001; Smogorzewska et al., 2007). Individual shRNAs were packaged into retroviruses and infected into a 50:50 mixture of GFP+ DLD-1 Ras Mut cells and GFP (colorless) DLD-1 Ras WT cells. The relative ratio of Ras Mut versus WT cells at ˜7 days post shRNA infection was analyzed by FACS and compared to that of a mixed population infected with a negative control shRNA targeting luciferase (FIG. 8E). […] Without wishing to be bound by theory, a possible cause for the higher false positive rate in the primary screen might due to the fact that for the synthetic lethal analysis the difference between two microarray datasets is extracted and coupled with the fact that the secondary assay is much shorter than the original discovery assay. To rule out cell-line specific effect of candidate RSL shRNAs, candidates were tested using the competition assay in a second isogenic pair of colorectal cancer cell lines: HCT116 KRAS WT/G13D and HCT116 KRAS WT/−, which were derived with a similar method as the DLD-1 isogenic pair (Shirasawa et al., 1993; Torrance et al., 2001).
(§1) The competition assay used to test candidate genes from the screen was modified from a previous protocol (Torrance et al., 2001; Smogorzewska et al., 2007) and was carried out in 96-well plates in independent triplicates. For this assay, 1,000 each of GFP-labeled Ras Mut and unlabeled Ras WT cells were seeded in each well. For retroviral shRNA infection, cells were infected at an MOI of 1-5, selected for 3 days with puromycin and propagated for an additional 4-5 days before analyzed by FACS. An shRNA targeting firefly luciferase (shRNA-FF) was used as the negative control. For siRNA transfection, cells were transfected with siGenome siRNAs (Dharmacon) using Lipofectamine RNAiMAX (InVitrogen) and analyzed by FACS 5-6 days post transfection An siRNA targeting luciferase (Luc) was used as the negative control. For drug treatment, cells were treated with drugs for 4-5 days prior to FACS analysis. Untreated wells were used as negative controls. To obtain normalized fitness of Ras Mut cells that can be compared across experiments, the percentage of Ras Mut cells in each sample was normalized to that in the control samples of that experiment.

[2] = system: HCT116 PI3K Mut cells vs PI3K WT cells; assay: Competition assay, PI3K Mut vs PI3K WT cells; conditions: HCT116 isogenic for the PI3K oncogene
[3] = system: DLD-1 PI3K Mut cells vs PI3K WT cells; assay: Competition assay, PI3K Mut vs PI3K WT cells; conditions: DLD-1 isogenic for the PI3K oncogene
[4] = system: DLD-1 Ras Mut and Ras WT cells; assay: Cell cycle and mitotic stage analysis (FACS, phospho-H3 Ser10, microscopy); conditions: for G2/M arrest, Ras Mut vs Ras WT cells: DLD-1, synthetic lethal concentration of drug; for Prometaphase arrest of mitotic cells: DLD-1 Ras Mut vs Ras WT
Experimental: (§2) For cell cycle analysis, cells were ethanol fixed and stained with PI and analyzed using a BD LSR II FACS analyzer (BD Bioscience). Data analysis was carried out with BD FACS Diva and FlowJo softwares. Cell cycle synchronization by double thymidine block was based on a previous protocol (Steegmaier et al., 2007). Briefly, cells were arrested with two rounds of 20-hour thymidine (2.5 mM) treatment approximately 12 hours apart and released into mitosis. […] For one-step arrest in G2/M or in prometaphase, cells were treated overnight with either RO-3306 (10 μM) or the Eg5 kinesin inhibitor monastrol (100 μM), respectively. For mitotic entry experiments, cells were synchronized in RO-3306 (10 uM) overnight prior to release. For mitotic release experiments, cells were released from overnight synchronization in RO-3306 (10 uM) into nocodazole ([…]) for 4 hours and mitotic cells were collected by mitotic shake-off. Cells were then release by washing out the nocodazole. For the analysis of lagging chromosomes and mitotic index by microscopy, cells seeded onto coverslips were arrested in mitosis with 100 μM monastrol for 16 hours. Cells were washed and released into fresh media and were fixed at ten minute intervals for two hours in PHEM buffer+2% formaldehyde+0.5% triton-X100. Cells were immunostained with DAPI to visualized DNA and antibodies to phospho-histone H3 Ser10 (pH3S10) and to α-tubulin to identify mitotic cells at different stages. Independent triplicates with >100 cells per replicate were analyzed. For measuring mitotic index by FACS, cells were trypsinized, fixed with ethanol and stained with PI and pH3S10 antibody.

[5] = system: DLD-1 Ras Mut cells vs DLD-1 Ras WT cells; assay: Competition assay, GFP-labeled Ras Mut vs Ras WT cells, FACS; conditions: for Viability/fitness of Ras Mut cells after transient treatment: DLD-1, 24 hours treatment, drug washed out, 3 additional days before FACS; for Fitness of Ras Mut cells relative to Ras WT cells (synthetic lethality with mutant Ras): DLD-1 isogenic pair, drug present for 4-5 days
Experimental: E. Schematic of the competition assay used to validate shRNAs from the primary screen. Ras Mut cells expressing GFP and Ras WT cells were mixed and co-infected with the same retroviral shRNA. The Mut to WT cell ratio at the end of the experiment is measured by FACS. The percentage of Ras Mut cells in the mixture infected with a candidate RSL shRNA was normalized against that of a control shRNA targeting firefly luciferase (FF) within the same experiment to generate a normalized fitness score for the Ras Mut cells. Variations of this assay are also used to test the effect of siRNAs and chemical inhibitors.
Next, a competition assay was devised to test the reproducibility of candidate RSL shRNAs from the primary screen (Torrance et al., 2001; Smogorzewska et al., 2007). Individual shRNAs were packaged into retroviruses and infected into a 50:50 mixture of GFP+ DLD-1 Ras Mut cells and GFP (colorless) DLD-1 Ras WT cells. The relative ratio of Ras Mut versus WT cells at ˜7 days post shRNA infection was analyzed by FACS and compared to that of a mixed population infected with a negative control shRNA targeting luciferase (FIG. 8E). […] To rule out cell-line specific effect of candidate RSL shRNAs, candidates were tested using the competition assay in a second isogenic pair of colorectal cancer cell lines: HCT116 KRAS WT/G13D and HCT116 KRAS WT/−, which were derived with a similar method as the DLD-1 isogenic pair (Shirasawa et al., 1993; Torrance et al., 2001).
as §1, with “For drug treatment, cells were treated with drugs for 4-5 days prior to FACS analysis.” left out

[6] = system: HCT116 Ras Mut and Ras WT cells
Experimental: as §2, with “Cells were immunostained with DAPI to visualized DNA and antibodies to phospho-histone H3 Ser10 (pH3S10) and to α-tubulin to identify mitotic cells at different stages.” left out, “For measuring mitotic index by FACS, cells were trypsinized, fixed with ethanol and stained with PI and pH3S10 antibody.” left out

SMILES	Fitness of Ras Mut cells relative to Ras WT cells (synthetic lethality with mutant Ras) [1]	Fitness of PI3K Mut cells vs PI3K WT cells [2]	Fitness of PI3K Mut cells vs PI3K WT cells [3]	G2/M arrest, Ras Mut vs Ras WT cells [4]	Prometaphase arrest of mitotic cells [4]	Viability/fitness of Ras Mut cells after transient treatment [5]	Fitness of Ras Mut cells relative to Ras WT cells (synthetic lethality with mutant Ras) [5]	Cell cycle accumulation of Ras Mut cells by FACS [6]
CC(=O)O[C@H]1C(=O)[C@@]2(C)[C@H]([C@H](OC(=O)c3ccccc3)[C@]3(O)C[C@H](OC(=O)[C@H](O)[C@@H](NC(=O)c4ccccc4)c4ccccc4)C(C)=C1C3(C)C)[C@]1(OC(C)=O)CO[C@@H]1C[C@@H]2O [paclitaxel]	increased sensitivity	very little difference	more resistant to these inhibitors relative to DLD-1 PI3K WT cells	strong G2/M arrest in Ras Mut cells but not in Ras WT cells	striking pro-metaphase block in the Ras mutant cells	sufficient to selectively impair the viability of Ras Mut cells	increased sensitivity	–
CC(C)C[C@H](NC(=O)[C@H](Cc1ccccc1)NC(=O)c1cnccn1)B(O)O [bortezomib]	selectively decrease the fitness of HCT116 Ras Mut cells	very little difference	more resistant to these inhibitors relative to DLD-1 PI3K WT cells	more sensitive	more profound prometaphase block of the Ras Mut cells	sufficient to selectively impair the viability of Ras Mut cells	selectively decreased the fitness of DLD-1 Ras Mut cells in a dose dependent fashion	preferentially induce the accumulation of Ras Mut HCT116 cells
COC(=O)Nc1nc2ccc(C(=O)c3cccs3)cc2[nH]1 [nocodazole]	no synthetic lethality with mutant Ras	–	–	–	–	–	no synthetic lethality with mutant Ras	–
N#CC(=C(/N)Sc1ccccc1N)/C(C#N)=C(\N)Sc1ccccc1N [U0126]	–	–	–	–	–	–	At no concentration of these drugs was selective toxicity towards Ras Mut cells compared to Ras WT cells observed	–
CC(C)C[C@@H](C=O)NC(=O)[C@H](CC(C)C)NC(=O)[C@H](CC(C)C)NC(=O)OCc1ccccc1 [MG132] (Cbz-Leu-Leu-Leu-aldehyde)	selectively decrease the fitness of HCT116 Ras Mut cells	very little difference	more resistant to these inhibitors relative to DLD-1 PI3K WT cells	more sensitive	more profound prometaphase block of the Ras Mut cells	sufficient to selectively impair the viability of Ras Mut cells	selectively decreased the fitness of DLD-1 Ras Mut cells in a dose dependent fashion	preferentially induce the accumulation of Ras Mut HCT116 cells
